From PubChem BioAssay (NCI)
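Cells were grown in 96-well plates and exposed to each compound for 48 hours at five concentrations; endpoints were interpolated linearly between bracketing concentrations, or set to the highest concentration if not reached. GI50 = concentration required for 50% inhibition of growth. Definition used: TGI = concentration required for complete inhibition of growth.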

How the values were obtained:
Assay in all cases: inhibition of tumour cell growth, NCI panel, 48 h
HS 578T breast = tested on: HS 578T breast
SW-620 colon = tested on: SW-620 colon
HOP-92 NSCLC = tested on: HOP-92 NSCLC
RXF 393 renal = tested on: RXF 393 renal
TK-10 renal = tested on: TK-10 renal
HCT-116 colon = tested on: HCT-116 colon
MDA-MB-231 breast = tested on: MDA-MB-231 breast
SNB-75 CNS = tested on: SNB-75 CNS
CAKI-1 renal = tested on: CAKI-1 renal
M14 melanoma = tested on: M14 melanoma
MDA-MB-435 = tested on: MDA-MB-435
NCI-H460 lung = tested on: NCI-H460 lung
NCI-H23 lung = tested on: NCI-H23 lung
NCI-H226 lung = tested on: NCI-H226 lung
OVCAR-4 ovarian = tested on: OVCAR-4 ovarian
COLO 205 colon = tested on: COLO 205 colon
OVCAR-5 ovarian = tested on: OVCAR-5 ovarian
HOP-62 NSCLC = tested on: HOP-62 NSCLC
MCF7 breast = tested on: MCF7 breast
HCC-2998 colon = tested on: HCC-2998 colon
SK-MEL-28 melanoma = tested on: SK-MEL-28 melanoma
NCI/ADR-RES ovarian = tested on: NCI/ADR-RES ovarian
MOLT-4 leukemia = tested on: MOLT-4 leukemia
UACC-62 melanoma = tested on: UACC-62 melanoma
UACC-257 melanoma = tested on: UACC-257 melanoma
SK-MEL-5 melanoma = tested on: SK-MEL-5 melanoma
HL-60(TB) leukemia = tested on: HL-60(TB) leukemia
OVCAR-3 ovarian = tested on: OVCAR-3 ovarian
OVCAR-8 ovarian = tested on: OVCAR-8 ovarian
BT-549 breast = tested on: BT-549 breast
CCRF-CEM leukemia = tested on: CCRF-CEM leukemia
SF-539 CNS = tested on: SF-539 CNS
SN12C renal = tested on: SN12C renal
HCT-15 colon = tested on: HCT-15 colon
KM12 colon = tested on: KM12 colon
EKVX NSCLC = tested on: EKVX NSCLC
LOX IMVI melanoma = tested on: LOX IMVI melanoma
SK-OV-3 ovarian = tested on: SK-OV-3 ovarian
786-0 renal = tested on: 786-0 renal
K-562 leukemia = tested on: K-562 leukemia
SK-MEL-2 melanoma = tested on: SK-MEL-2 melanoma
MALME-3M melanoma = tested on: MALME-3M melanoma
HT29 colon = tested on: HT29 colon
SF-268 CNS = tested on: SF-268 CNS
ACHN renal = tested on: ACHN renal
A549 NSCLC = tested on: A549 NSCLC
NCI-H522 lung = tested on: NCI-H522 lung
UO-31 renal = tested on: UO-31 renal
SNB-19 CNS = tested on: SNB-19 CNS
T-47D breast = tested on: T-47D breast
PC-3 prostate = tested on: PC-3 prostate
SR leukemia = tested on: SR leukemia
SF-295 CNS = tested on: SF-295 CNS
U251 CNS = tested on: U251 CNS
A498 renal = tested on: A498 renal
DU-145 prostate = tested on: DU-145 prostate
IGROV1 ovarian = tested on: IGROV1 ovarian
RPMI-8226 leukemia = tested on: RPMI-8226 leukemia

Question: How did the GI50 (HS 578T breast) turn out when `NCCCCCCn1c2c(c3ccccc3c1=O)C(=O)c1ccccc1-2` was run?
Answer: 2.51 µM

Question: What about the TGI (HS 578T breast) of the same compound?
Answer: 11.1 µM

Question: And the GI50 (SW-620 colon)?
Answer: 0.613 µM

Question: What about the TGI (SW-620 colon) of the same compound?
Answer: 3.16 µM

Question: And the GI50 (HOP-92 NSCLC)?
Answer: 2.57 µM

Question: And the TGI (HOP-92 NSCLC)?
Answer: 16 µM

Question: What about the GI50 (RXF 393 renal) of the same compound?
Answer: 12 µM

Question: And the TGI (RXF 393 renal)?
Answer: 64.8 µM

Question: And the GI50 (TK-10 renal)?
Answer: 1.65 µM

Question: And the TGI (TK-10 renal)?
Answer: 3.82 µM

Question: What about the GI50 (HCT-116 colon) of the same compound?
Answer: 0.909 µM

Question: What about the TGI (HCT-116 colon) of the same compound?
Answer: 6.11 µM

Question: What about the GI50 (MDA-MB-231 breast) of the same compound?
Answer: 1.98 µM

Question: What about the TGI (MDA-MB-231 breast) of the same compound?
Answer: 5.46 µM

Question: And the GI50 (SNB-75 CNS)?
Answer: 1.75 µM

Question: And the TGI (SNB-75 CNS)?
Answer: 7.72 µM

Question: And the GI50 (CAKI-1 renal)?
Answer: 1.96 µM

Question: And the TGI (CAKI-1 renal)?
Answer: 8.25 µM

Question: And the GI50 (M14 melanoma)?
Answer: 2.28 µM

Question: And the TGI (M14 melanoma)?
Answer: 5 µM

Question: And the GI50 (MDA-MB-435)?
Answer: 2.05 µM

Question: What about the TGI (MDA-MB-435) of the same compound?
Answer: 4.76 µM

Question: And the GI50 (NCI-H460 lung)?
Answer: 0.415 µM

Question: And the TGI (NCI-H460 lung)?
Answer: 11.3 µM

Question: And the GI50 (NCI-H23 lung)?
Answer: 1.5 µM

Question: And the TGI (NCI-H23 lung)?
Answer: 6.54 µM

Question: What about the GI50 (NCI-H226 lung) of the same compound?
Answer: 1.08 µM

Question: What about the TGI (NCI-H226 lung) of the same compound?
Answer: 3.07 µM

Question: What about the GI50 (OVCAR-4 ovarian) of the same compound?
Answer: 2.19 µM

Question: What about the TGI (OVCAR-4 ovarian) of the same compound?
Answer: 7.24 µM

Question: What about the GI50 (COLO 205 colon) of the same compound?
Answer: 1.6 µM

Question: What about the TGI (COLO 205 colon) of the same compound?
Answer: 13.7 µM

Question: And the GI50 (OVCAR-5 ovarian)?
Answer: 1.88 µM

Question: What about the TGI (OVCAR-5 ovarian) of the same compound?
Answer: 4.6 µM

Question: And the GI50 (HOP-62 NSCLC)?
Answer: 1.28 µM

Question: And the TGI (HOP-62 NSCLC)?
Answer: 4.5 µM

Question: What about the GI50 (MCF7 breast) of the same compound?
Answer: 0.744 µM

Question: What about the TGI (MCF7 breast) of the same compound?
Answer: 3.61 µM

Question: What about the GI50 (HCC-2998 colon) of the same compound?
Answer: 2.25 µM

Question: And the TGI (HCC-2998 colon)?
Answer: 14.3 µM

Question: And the GI50 (SK-MEL-28 melanoma)?
Answer: 1.9 µM

Question: And the TGI (SK-MEL-28 melanoma)?
Answer: 3.76 µM

Question: And the GI50 (NCI/ADR-RES ovarian)?
Answer: 2.46 µM

Question: And the TGI (NCI/ADR-RES ovarian)?
Answer: 11.7 µM

Question: And the GI50 (MOLT-4 leukemia)?
Answer: 0.237 µM

Question: What about the TGI (MOLT-4 leukemia) of the same compound?
Answer: 0.972 µM

Question: And the GI50 (UACC-62 melanoma)?
Answer: 1.63 µM

Question: And the TGI (UACC-62 melanoma)?
Answer: 3.5 µM

Question: And the GI50 (UACC-257 melanoma)?
Answer: 2.36 µM

Question: And the TGI (UACC-257 melanoma)?
Answer: 5.8 µM

Question: What about the GI50 (SK-MEL-5 melanoma) of the same compound?
Answer: 1.3 µM

Question: And the TGI (SK-MEL-5 melanoma)?
Answer: 2.75 µM

Question: What about the GI50 (HL-60(TB) leukemia) of the same compound?
Answer: 0.266 µM

Question: And the TGI (HL-60(TB) leukemia)?
Answer: 1.42 µM

Question: What about the GI50 (OVCAR-3 ovarian) of the same compound?
Answer: 1.98 µM

Question: What about the TGI (OVCAR-3 ovarian) of the same compound?
Answer: 6.24 µM

Question: And the GI50 (OVCAR-8 ovarian)?
Answer: 1.54 µM

Question: What about the TGI (OVCAR-8 ovarian) of the same compound?
Answer: 11.3 µM

Question: What about the GI50 (BT-549 breast) of the same compound?
Answer: 1.8 µM

Question: What about the TGI (BT-549 breast) of the same compound?
Answer: 4.73 µM

Question: And the GI50 (CCRF-CEM leukemia)?
Answer: 0.512 µM

Question: What about the TGI (CCRF-CEM leukemia) of the same compound?
Answer: 3.21 µM

Question: And the GI50 (SF-539 CNS)?
Answer: 1.24 µM

Question: And the TGI (SF-539 CNS)?
Answer: 3.59 µM

Question: What about the GI50 (SN12C renal) of the same compound?
Answer: 1.33 µM

Question: What about the TGI (SN12C renal) of the same compound?
Answer: 6.09 µM

Question: And the GI50 (HCT-15 colon)?
Answer: 0.717 µM

Question: What about the TGI (HCT-15 colon) of the same compound?
Answer: 5.86 µM

Question: And the GI50 (KM12 colon)?
Answer: 1.38 µM

Question: And the TGI (KM12 colon)?
Answer: 6.9 µM

Question: And the GI50 (EKVX NSCLC)?
Answer: 10.3 µM

Question: And the TGI (EKVX NSCLC)?
Answer: 28.8 µM

Question: And the GI50 (LOX IMVI melanoma)?
Answer: 1.12 µM

Question: And the TGI (LOX IMVI melanoma)?
Answer: 2.99 µM

Question: What about the GI50 (SK-OV-3 ovarian) of the same compound?
Answer: 0.72 µM

Question: And the TGI (SK-OV-3 ovarian)?
Answer: 7.42 µM

Question: And the GI50 (786-0 renal)?
Answer: 0.603 µM

Question: And the TGI (786-0 renal)?
Answer: > 100 µM

Question: And the GI50 (K-562 leukemia)?
Answer: 0.705 µM

Question: And the TGI (K-562 leukemia)?
Answer: 5.35 µM

Question: What about the GI50 (SK-MEL-2 melanoma) of the same compound?
Answer: 1.87 µM

Question: What about the TGI (SK-MEL-2 melanoma) of the same compound?
Answer: 3.54 µM

Question: What about the GI50 (MALME-3M melanoma) of the same compound?
Answer: 1.91 µM

Question: What about the TGI (MALME-3M melanoma) of the same compound?
Answer: 4.61 µM

Question: What about the GI50 (HT29 colon) of the same compound?
Answer: 1.2 µM

Question: What about the TGI (HT29 colon) of the same compound?
Answer: 4.42 µM

Question: And the GI50 (SF-268 CNS)?
Answer: 2.3 µM

Question: And the TGI (SF-268 CNS)?
Answer: 16.2 µM

Question: And the GI50 (ACHN renal)?
Answer: 0.526 µM

Question: What about the TGI (ACHN renal) of the same compound?
Answer: 2.71 µM

Question: What about the GI50 (A549 NSCLC) of the same compound?
Answer: 1.22 µM

Question: What about the TGI (A549 NSCLC) of the same compound?
Answer: 25.8 µM

Question: What about the GI50 (NCI-H522 lung) of the same compound?
Answer: 1.17 µM

Question: And the TGI (NCI-H522 lung)?
Answer: 2.88 µM

Question: And the GI50 (UO-31 renal)?
Answer: 0.442 µM

Question: What about the TGI (UO-31 renal) of the same compound?
Answer: 1.85 µM

Question: And the GI50 (SNB-19 CNS)?
Answer: 1.19 µM

Question: What about the TGI (SNB-19 CNS) of the same compound?
Answer: 10.1 µM

Question: What about the GI50 (T-47D breast) of the same compound?
Answer: 1.85 µM

Question: And the TGI (T-47D breast)?
Answer: 5.93 µM

Question: What about the GI50 (PC-3 prostate) of the same compound?
Answer: 2.12 µM

Question: What about the TGI (PC-3 prostate) of the same compound?
Answer: 11.8 µM

Question: What about the GI50 (SR leukemia) of the same compound?
Answer: 0.349 µM

Question: And the TGI (SR leukemia)?
Answer: 2.09 µM

Question: What about the GI50 (SF-295 CNS) of the same compound?
Answer: 1.47 µM

Question: What about the TGI (SF-295 CNS) of the same compound?
Answer: 5.56 µM

Question: And the GI50 (U251 CNS)?
Answer: 1.43 µM

Question: And the TGI (U251 CNS)?
Answer: 12.3 µM

Question: And the GI50 (A498 renal)?
Answer: 0.675 µM

Question: What about the TGI (A498 renal) of the same compound?
Answer: 2.97 µM

Question: What about the GI50 (DU-145 prostate) of the same compound?
Answer: 0.608 µM

Question: And the TGI (DU-145 prostate)?
Answer: > 100 µM

Question: What about the GI50 (IGROV1 ovarian) of the same compound?
Answer: 1.07 µM

Question: What about the TGI (IGROV1 ovarian) of the same compound?
Answer: 4.31 µM

Question: What about the GI50 (RPMI-8226 leukemia) of the same compound?
Answer: 1.53 µM

Question: And the TGI (RPMI-8226 leukemia)?
Answer: 6.07 µM
